In ChEMBL document CHEMBL1201862, “PubChem BioAssay data set” (2004):
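Test compounds were applied to cells in 96-well plates for 48 hours at 5 doses. GI50: concentration for 50% inhibition of growth.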 The source made the active and inactive calls. Rule as the data show it: active = GI50 up to about 1.1 µM and inactive = higher.

Columns and labels:
Assay in all cases: NCI-60 cell line screen, 48 h
[1] = system: SNB-75
[2] = system: Hs-578T
[3] = system: ACHN
[4] = system: M14
[5] = system: IGROV-1
[6] = system: SF-295
[7] = system: 786-0
[8] = system: SN12C
[9] = system: T47D
[10] = system: EKVX
[11] = system: OVCAR-8
[12] = system: TK-10
[13] = system: HCC 2998
[14] = system: HCT-116
[15] = system: A498
[16] = system: HCT-15
[17] = system: HT-29
[18] = system: HOP-62
[19] = system: HL-60
[20] = system: KM12
[21] = system: MDA-N
[22] = system: SW-620
[23] = system: SK-OV-3
[24] = system: UACC-62
[25] = system: RPMI-8226
[26] = system: BT-549
[27] = system: A549
[28] = system: SK-MEL-28
[29] = system: HOP-92
[30] = system: MCF7
[31] = system: K562
[32] = system: CCRF-CEM
[33] = system: MDA-MB-231
[34] = system: U-251
[35] = system: CAKI-1
[36] = system: LOX IMVI
[37] = system: NCI/ADR-RES
[38] = system: OVCAR-4
[39] = system: MOLT-4
[40] = system: NCI-H522
[41] = system: UACC-257
[42] = system: SF-268
[43] = system: RXF 393
[44] = system: NCI-H460
[45] = system: MDA-MB-435
[46] = system: Malme-3M
[47] = system: OVCAR-3
[48] = system: SNB-19
[49] = system: SK-MEL-2
[50] = system: DU-145
[51] = system: OVCAR-5
[52] = system: NCI-H23
[53] = system: PC-3
[54] = system: SR
[55] = system: SK-MEL-5
[56] = system: SF-539
[57] = system: NCI-H226
[58] = system: UO-31
[59] = system: COLO 205

Compound: CCCCSC1=N/C(=C\c2ccc(N(C)C)cc2)C(NN)=N1
- GI50 [1]: > 100 µM (inactive)
- GI50 [2]: > 100 µM (inactive)
- GI50 [3]: > 100 µM (inactive)
- GI50 [4]: > 100 µM (inactive)
- GI50 [5]: > 100 µM (inactive)
- GI50 [6]: > 100 µM (inactive)
- GI50 [7]: > 100 µM (inactive)
- GI50 [8]: > 100 µM (inactive)
- GI50 [9]: > 100 µM (inactive)
- GI50 [10]: > 100 µM (inactive)
- GI50 [11]: > 100 µM (inactive)
- GI50 [12]: > 100 µM (inactive)
- GI50 [13]: > 100 µM (inactive)
- GI50 [14]: > 100 µM (inactive)
- GI50 [15]: > 100 µM (inactive)
- GI50 [16]: > 100 µM
- GI50 [17]: > 100 µM (inactive)
- GI50 [18]: > 100 µM (inactive)
- GI50 [19]: > 100 µM (inactive)
- GI50 [20]: > 100 µM (inactive)
- GI50 [21]: > 100 µM (inactive)
- GI50 [22]: > 100 µM (inactive)
- GI50 [23]: > 100 µM (inactive)
- GI50 [24]: > 100 µM (inactive)
- GI50 [25]: > 100 µM (inactive)
- GI50 [26]: > 100 µM (inactive)
- GI50 [27]: > 100 µM (inactive)
- GI50 [28]: > 100 µM (inactive)
- GI50 [29]: > 100 µM (inactive)
- GI50 [30]: > 100 µM (inactive)
- GI50 [31]: > 100 µM (inactive)
- GI50 [32]: > 100 µM (inactive)
- GI50 [33]: > 100 µM (inactive)
- GI50 [34]: > 100 µM (inactive)
- GI50 [35]: > 100 µM (inactive)
- GI50 [36]: > 100 µM (inactive)
- GI50 [37]: > 100 µM (inactive)
- GI50 [38]: > 100 µM (inactive)
- GI50 [39]: > 100 µM (inactive)
- GI50 [40]: > 100 µM (inactive)
- GI50 [41]: > 100 µM (inactive)
- GI50 [42]: > 100 µM (inactive)
- GI50 [43]: > 100 µM (inactive)
- GI50 [44]: > 100 µM (inactive)
- GI50 [45]: > 100 µM (inactive)
- GI50 [46]: > 100 µM (inactive)
- GI50 [47]: > 100 µM (inactive)
- GI50 [48]: > 100 µM (inactive)
- GI50 [49]: > 100 µM (inactive)
- GI50 [50]: > 100 µM (inactive)
- GI50 [51]: > 100 µM (inactive)
- GI50 [52]: > 100 µM (inactive)
- GI50 [53]: > 100 µM (inactive)

Compound: CCCCCCC(=O)O[C@H]1CC[C@H]2[C@@H]3CCC4C/C(=N/NC(=O)c5cccc6c(=O)c7ccccc7[nH]c56)C=C(C)[C@]4(C)[C@H]3CC[C@]12C (some centres not stated)
- GI50 [1]: > 25 µM (inactive)
- GI50 [2]: > 25 µM (inactive)
- GI50 [3]: > 25 µM (inactive)
- GI50 [54]: > 25 µM (inactive)
- GI50 [4]: > 25 µM (inactive)
- GI50 [5]: > 25 µM (inactive)
- GI50 [6]: > 25 µM (inactive)
- GI50 [7]: > 25 µM (inactive)
- GI50 [8]: > 25 µM (inactive)
- GI50 [9]: > 25 µM (inactive)
- GI50 [10]: > 25 µM (inactive)
- GI50 [11]: > 25 µM (inactive)
- GI50 [12]: > 25 µM (inactive)
- GI50 [13]: > 25 µM (inactive)
- GI50 [55]: > 25 µM (inactive)
- GI50 [14]: > 25 µM (inactive)
- GI50 [16]: > 25 µM
- GI50 [17]: > 25 µM (inactive)
- GI50 [56]: > 25 µM (inactive)
- GI50 [18]: > 25 µM (inactive)
- GI50 [19]: > 25 µM (inactive)
- GI50 [20]: 9.27 µM (inactive)
- GI50 [21]: > 25 µM (inactive)
- GI50 [22]: > 25 µM (inactive)
- GI50 [23]: > 25 µM (inactive)
- GI50 [24]: > 25 µM (inactive)
- GI50 [25]: > 25 µM (inactive)
- GI50 [26]: > 25 µM (inactive)
- GI50 [27]: > 25 µM (inactive)
- GI50 [29]: > 25 µM (inactive)
- GI50 [30]: > 25 µM (inactive)
- GI50 [31]: > 25 µM (inactive)
- GI50 [57]: > 25 µM (inactive)
- GI50 [32]: > 25 µM (inactive)
- GI50 [58]: 19.6 µM (inactive)
- GI50 [33]: > 25 µM (inactive)
- GI50 [34]: > 25 µM (inactive)
- GI50 [35]: > 25 µM (inactive)
- GI50 [36]: > 25 µM (inactive)
- GI50 [37]: > 25 µM (inactive)
- GI50 [38]: > 25 µM (inactive)
- GI50 [59]: > 25 µM (inactive)
- GI50 [39]: > 25 µM (inactive)
- GI50 [41]: > 25 µM (inactive)
- GI50 [42]: > 25 µM (inactive)
- GI50 [45]: > 25 µM (inactive)
- GI50 [46]: > 25 µM (inactive)
- GI50 [47]: > 25 µM (inactive)
- GI50 [48]: > 25 µM (inactive)
- GI50 [49]: > 25 µM (inactive)
- GI50 [50]: > 25 µM (inactive)
- GI50 [51]: > 25 µM (inactive)
- GI50 [52]: > 25 µM (inactive)
- GI50 [53]: > 25 µM (inactive)
